# Data from patent US20120100990A1, “4 -AMINOPICOLINATES AND THEIR USE AS HERBICIDES” (SYNGENTA CROP PROTECTION LLC, priority 2009, published 2012).
# Assays:
# Type in all cases: in vivo
# [1] = system: Alopecurus myosuroides (ALOMY); assay: Pre-emergence biological efficacy, glasshouse pot test; details: 312 h, 1,000 g/ha, evaluated after 13 days, 100=total damage, 0=no damage, read-out: Percentage damage caused to weed species, pre-emergence, ALOMY
# Description: (§1) Seeds of Alopecurus myosuroides (ALOMY), Setaria faberi (SETFA), Echinochloa crus-galli (ECHCG), Solanum nigrum (SOLNI), Amaranthus retroflexus (AMARE) and Ipomea hederaceae (IPOHE) were sown in standard soil in pots. After cultivation for one day under controlled conditions in a glasshouse (at 24/16° C., day/night; 14 hours light; 65% humidity), the plants were sprayed with an aqueous spray solution derived from the formulation of the technical active ingredient in acetone/water (50:50) solution containing 0.5% Tween 20 (polyoxyethylene sorbitan monolaurate, CAS RN 9005-64-5) to give a final dose of 1000 or 250 g/ha of test compound. The test plants were then grown under controlled conditions in the glasshouse (at 24/16° C., day/night; 14 hours light; 65% humidity) and watered twice daily. After 13 days the test was evaluated (100=total damage to plant; 0=no damage to plant).
# [2] = system: Amaranthus retroflexus (AMARE); assay: as above; details: 312 h, 1,000 g/ha, evaluated after 13 days, 100=total damage, 0=no damage, read-out: Percentage damage caused to weed species, pre-emergence, AMARE
# Description: as §1
# [3] = system: Echinochloa crus-galli (ECHCG); assay: as above; details: 312 h, 1,000 g/ha, evaluated after 13 days, 100=total damage, 0=no damage, read-out: Percentage damage caused to weed species, pre-emergence, ECHCG
# Description: as §1
# [4] = system: Ipomea hederaceae (IPOHE); assay: as above; details: Ipomoea hederacea, 312 h, 1,000 g/ha, evaluated after 13 days, 100=total damage, 0=no damage, read-out: Percentage damage caused to weed species, pre-emergence, IPOHE
# Description: as §1
# Setaria faberi (SETFA) [5] = assay: as above; details: 312 h, 1,000 g/ha, evaluated after 13 days, 100=total damage, 0=no damage, read-out: Percentage damage caused to weed species, pre-emergence, SETFA
# Description: as §1
# Solanum nigrum (SOLNI) [6] = assay: as above; details: 312 h, 1,000 g/ha, evaluated after 13 days, 100=total damage, 0=no damage, read-out: Percentage damage caused to weed species, pre-emergence, SOLNI
# Description: as §1
# [7] = system: Alopecurus myosuroides (ALOMY); assay: Post-emergence biological efficacy, glasshouse pot test; details: 312 h, 1,000 g/ha, evaluated after 13 days, 100=total damage, 0=no damage, read-out: Percentage damage caused to weed species, post-emergence, ALOMY
# Description: as §1, with “for 8 days” for “for one day”, “grown on” for “grown”, “in a” for “in the”
# [8] = system: Amaranthus retroflexus (AMARE); assay: as above; details: 312 h, 1,000 g/ha, evaluated after 13 days, 100=total damage, 0=no damage, read-out: Percentage damage caused to weed species, post-emergence, AMARE
# Description: as §1, with “for 8 days” for “for one day”, “grown on” for “grown”, “in a” for “in the”
# [9] = system: Echinochloa crus-galli (ECHCG); assay: as above; details: 312 h, 1,000 g/ha, evaluated after 13 days, 100=total damage, 0=no damage, read-out: Percentage damage caused to weed species, post-emergence, ECHCG
# Description: as §1, with “for 8 days” for “for one day”, “grown on” for “grown”, “in a” for “in the”
# [10] = system: Ipomea hederaceae (IPOHE); assay: as above; details: Ipomoea hederacea, 312 h, 1,000 g/ha, evaluated after 13 days, 100=total damage, 0=no damage, read-out: Percentage damage caused to weed species, post-emergence, IPOHE
# Description: as §1, with “for 8 days” for “for one day”, “grown on” for “grown”, “in a” for “in the”
# Setaria faberi (SETFA) [11] = assay: as above; details: 312 h, 1,000 g/ha, evaluated after 13 days, 100=total damage, 0=no damage, read-out: Percentage damage caused to weed species, post-emergence, SETFA
# Description: as §1, with “for 8 days” for “for one day”, “grown on” for “grown”, “in a” for “in the”
# Solanum nigrum (SOLNI) [12] = assay: as above; details: 312 h, 1,000 g/ha, evaluated after 13 days, 100=total damage, 0=no damage, read-out: Percentage damage caused to weed species, post-emergence, SOLNI
# Description: as §1, with “for 8 days” for “for one day”, “grown on” for “grown”, “in a” for “in the”
SMILES,pest or weed control at 1000 g/ha [1] [%],pest or weed control at 1000 g/ha [2] [%],pest or weed control at 1000 g/ha [3] [%],pest or weed control at 1000 g/ha [4] [%],pest or weed control at 1000 g/ha (Setaria faberi (SETFA) [5]) [%],pest or weed control at 1000 g/ha (Solanum nigrum (SOLNI) [6]) [%],pest or weed control at 1000 g/ha [7] [%],pest or weed control at 1000 g/ha [8] [%],pest or weed control at 1000 g/ha [9] [%],pest or weed control at 1000 g/ha [10] [%],pest or weed control at 1000 g/ha (Setaria faberi (SETFA) [11]) [%],pest or weed control at 1000 g/ha (Solanum nigrum (SOLNI) [12]) [%]
"COC(=O)c1nc(Cl)c(Cl)c(NCc2ncccc2Cl)c1Br [Compound 32-41, 3-Bromo-4-[(3-chloro-pyridin-2-ylmethyl)-amino]-5,6-dichloro-pyridine-2-carboxylic acid methyl ester]",0,90,0,80,0,80,20,90,20,70,60,90
"COC(=O)c1nc(Cl)cc(NCc2ccccc2OC)c1Cl [Compound 73-2, 3,6-Dichloro-4-[(2-methoxyphenyl-methyl)-amino]-pyridine-2-carboxylic acid methyl ester]",50,100,20,100,80,100,40,100,40,70,80,90
"C=Cc1c(NCc2c(Cl)cccc2Cl)cc(Cl)nc1C(=O)OC [Compound 21-12, 6-Chloro-4-[(2,6-dichlorophenyl-methyl)-amino]-3-ethenyl-pyridine-2-carboxylic acid methyl ester]",0,100,0,30,0,–,20,100,10,30,0,80
"COC(=O)c1nc(Cl)cc(NCc2cnc(C)cn2)c1Cl [Compound 81-2, 3,6-Dichloro-4-[(5-methylpyrazin-2-ylmethyl)-amino]-pyridine-2-carboxylic acid methyl ester]",70,100,70,90,70,100,40,100,40,60,80,100
"COC(=O)c1nc(Cl)cc(NCc2ncccc2Cl)c1Br [Compound 32-17, 3-Bromo-6-chloro-4-[(3-chloro-pyridin-2-ylmethyl)-amino]-pyridine-2-carboxylic acid methyl ester]",10,90,0,80,0,80,20,80,20,50,50,90
"C=Cc1c(NCc2ccccc2C)cc(Cl)nc1C(=O)OC [Compound 9-12, 6-Chloro-3-ethenyl-4-[(2-methylphenyl-methyl)-amino]-pyridine-2-carboxylic acid methyl ester]",10,90,10,60,0,100,40,100,50,40,50,80
"COC(=O)c1nc(Cl)cc(NCc2ccccc2F)c1Cl [Compound 6-2, 3,6-Dichloro-4-[(2-fluorophenylmethyl)-amino]-pyridine-2-carboxylic acid methyl ester]",70,100,60,90,80,100,60,100,40,70,90,100
"C=Cc1c(C(=O)OC)nc(Cl)c(Cl)c1NCc1ncccc1Cl [Compound 32-39, 4-[(3-Chloro-pyridin-2-ylmethyl)-amino]-5,6-dichloro-3-ethenyl-pyridine-2-carboxylic acid methyl ester]",0,100,0,50,0,60,10,100,20,40,50,90
"C=Cc1c(NCc2ccccc2C(F)(F)F)cc(Cl)nc1C(=O)OC [Compound 74-12, 6-Chloro-3-ethenyl-4-[(2-trifluoromethyl-phenylmethyl)-amino]-pyridine-2-carboxylic acid methyl ester]",0,0,0,0,0,0,10,100,20,10,10,70
"C=Cc1c(NCc2ccco2)cc(Cl)nc1C(=O)O [Compound 26-11, 6-chloro-3-ethenyl-4-[(furan-2-ylmethyl)-amino]-pyridine-2-carboxylic acid]",100,100,90,100,100,100,80,100,80,80,90,100
